Results: paper PMC5564600 (Oncotarget, 2017)

What was measured:
[1] = target: T1, panel of 442 kinases (Homo sapiens, UniProt Q8IYT8); assay: biochemical; type: binding; details: kinase ULK2; for remaining activity at 1 µM: read-out: ULK2 (% of control at 1 µM)
T1 construct: purchased Ambit Biosciences (scanMAXX KINOMEscan)
T1 sequence (Q8IYT8 1-1036): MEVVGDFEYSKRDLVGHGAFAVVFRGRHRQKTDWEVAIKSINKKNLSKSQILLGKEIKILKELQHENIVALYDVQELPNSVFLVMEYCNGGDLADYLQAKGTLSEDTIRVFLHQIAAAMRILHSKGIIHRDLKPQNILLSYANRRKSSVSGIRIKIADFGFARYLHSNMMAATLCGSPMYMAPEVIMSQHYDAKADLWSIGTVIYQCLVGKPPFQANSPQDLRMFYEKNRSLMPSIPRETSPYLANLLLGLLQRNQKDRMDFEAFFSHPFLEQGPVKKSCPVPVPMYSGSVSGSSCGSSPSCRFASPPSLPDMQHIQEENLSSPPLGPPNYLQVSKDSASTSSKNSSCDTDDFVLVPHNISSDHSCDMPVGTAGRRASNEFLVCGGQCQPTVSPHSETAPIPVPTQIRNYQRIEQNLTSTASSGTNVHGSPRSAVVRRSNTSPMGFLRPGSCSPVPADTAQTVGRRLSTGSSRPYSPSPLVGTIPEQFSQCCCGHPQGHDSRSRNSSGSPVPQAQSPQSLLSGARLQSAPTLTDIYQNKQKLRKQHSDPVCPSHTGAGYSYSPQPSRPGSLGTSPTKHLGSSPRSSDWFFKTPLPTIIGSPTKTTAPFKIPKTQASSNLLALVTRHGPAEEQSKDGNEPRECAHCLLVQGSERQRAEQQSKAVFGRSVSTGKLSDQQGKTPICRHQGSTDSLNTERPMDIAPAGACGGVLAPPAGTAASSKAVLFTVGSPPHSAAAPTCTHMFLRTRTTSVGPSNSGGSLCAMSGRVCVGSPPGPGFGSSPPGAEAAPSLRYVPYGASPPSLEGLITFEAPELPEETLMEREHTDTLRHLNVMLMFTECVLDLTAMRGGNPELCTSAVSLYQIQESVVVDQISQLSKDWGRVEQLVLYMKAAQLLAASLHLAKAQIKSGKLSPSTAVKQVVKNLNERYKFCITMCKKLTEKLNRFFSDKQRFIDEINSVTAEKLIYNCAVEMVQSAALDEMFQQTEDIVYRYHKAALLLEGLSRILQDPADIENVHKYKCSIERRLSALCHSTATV

[2] = target: T2, panel of 442 kinases (Homo sapiens, UniProt Q96PY6); assay: biochemical; type: binding; details: kinase NEK1; for remaining activity at 1 µM: read-out: % of control at 1 µM
T2 construct: purchased Ambit Biosciences (scanMAXX KINOMEscan)
T2 sequence (Q96PY6 1-1258): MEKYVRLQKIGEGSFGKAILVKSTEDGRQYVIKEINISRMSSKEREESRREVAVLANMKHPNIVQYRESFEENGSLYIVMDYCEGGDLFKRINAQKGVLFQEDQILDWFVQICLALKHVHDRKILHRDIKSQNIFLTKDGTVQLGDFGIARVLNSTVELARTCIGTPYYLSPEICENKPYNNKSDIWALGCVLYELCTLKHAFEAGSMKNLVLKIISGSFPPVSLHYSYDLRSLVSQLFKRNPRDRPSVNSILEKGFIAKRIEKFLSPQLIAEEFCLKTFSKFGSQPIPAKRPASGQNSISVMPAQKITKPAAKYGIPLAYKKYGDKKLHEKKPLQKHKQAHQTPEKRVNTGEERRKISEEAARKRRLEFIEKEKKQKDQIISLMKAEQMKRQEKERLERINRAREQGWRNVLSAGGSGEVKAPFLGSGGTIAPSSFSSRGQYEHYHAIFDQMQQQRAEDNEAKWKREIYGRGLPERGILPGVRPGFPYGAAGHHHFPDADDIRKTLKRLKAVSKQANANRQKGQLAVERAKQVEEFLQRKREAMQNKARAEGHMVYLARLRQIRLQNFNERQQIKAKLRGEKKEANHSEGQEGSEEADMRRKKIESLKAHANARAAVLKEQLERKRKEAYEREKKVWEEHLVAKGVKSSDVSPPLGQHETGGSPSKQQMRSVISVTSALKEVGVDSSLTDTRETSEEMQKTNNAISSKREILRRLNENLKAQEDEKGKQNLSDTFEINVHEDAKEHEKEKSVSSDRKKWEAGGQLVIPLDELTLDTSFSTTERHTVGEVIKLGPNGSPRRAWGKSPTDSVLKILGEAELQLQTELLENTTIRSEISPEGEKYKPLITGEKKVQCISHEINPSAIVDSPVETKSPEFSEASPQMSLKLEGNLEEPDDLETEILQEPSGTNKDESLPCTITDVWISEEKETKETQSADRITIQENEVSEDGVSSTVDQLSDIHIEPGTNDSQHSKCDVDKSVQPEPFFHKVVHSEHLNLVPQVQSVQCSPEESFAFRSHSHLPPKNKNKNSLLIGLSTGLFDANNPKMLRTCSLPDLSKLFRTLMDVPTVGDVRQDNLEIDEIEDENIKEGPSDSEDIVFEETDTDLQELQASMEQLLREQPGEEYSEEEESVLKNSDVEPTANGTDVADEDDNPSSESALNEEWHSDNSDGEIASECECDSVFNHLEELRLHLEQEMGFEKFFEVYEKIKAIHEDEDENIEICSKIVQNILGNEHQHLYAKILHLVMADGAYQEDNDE

| SMILES | remaining activity at 1 µM [1] | remaining activity at 10 µM ([1]; 10 µM, read-out: ULK2 (% of control at 10 µM)) | remaining activity at 1 µM [2] | remaining activity at 10 µM ([2]; 10 µM, read-out: % of control at 10 µM) |
| --- | --- | --- | --- | --- |
| Nc1cc(C(F)(F)F)c(-c2cc(N3CCOCC3)nc(N3CCOCC3)n2)cn1 [Buparlisib] | 86% | 100% | 100% | 100% |
| Cn1c(=O)n(-c2ccc(C(C)(C)C#N)cc2)c2c3cc(-c4cnc5ccccc5c4)ccc3ncc21 [Dactolisib, 2-methyl-2-[4-(3-methyl-2-oxo-8-quinolin-3-yl-2,3-dihydroimidazo[4,5-c]quinolin-1-yl)-phenyl] propionitrile] | 93% | – | 98% | – |
| COc1ncc(-c2ccc3nccc(-c4ccnnc4)c3c2)cc1NS(=O)(=O)c1ccc(F)cc1F [Omipalisib] | 100% | – | 87% | – |
| FC(F)c1nc2ccccc2n1-c1nc(N2CCOCC2)nc(N2CCOCC2)n1 [ZSTK474, 2-(difluoromethyl)-1-[4,6-di(4-morpholinyl)-1,3,5-triazin-2-yl]-1H-benzimidazole] | 100% | – | 100% | – |
